In patent publication US20240018145A1, “[…]-DEPENDENT EN[…] TREATING OR […]” (priority 2020, published 2024):
Read-outs that look alike come from different tables or passages of the source.

Test system: FLU A (PR/8/34)
Assay: Flu A Neuraminidase Antiviral Assay
Format: cell-based

| Structure (SMILES) | EC50 | EC50 (MDCK, 48 h) |
| --- | --- | --- |
| CC1(c2ccccc2)CCCC2N(CC3CC4(CCC4)C3)C(=O)c3c(O)c(=O)ccn3N21 (single isomer, unassigned) [Compound 42A, 7-hydroxy-1-methyl-1-phenyl-5-(spiro[3.3]heptan-2-ylmethyl)-1,2,3,4,4a,5-hexahydrodipyrido[1,2-b:2′,1′-f][1,2,4]triazine-6,8-dione] | > 8100 nM |  |
| C=CCC1CCC2N(C)C(=O)c3c(O)c(=O)ccn3N2C1c1ccccc1Cl (stereo not drawn) [Compound 64A, 2-allyl-1-(2-chlorophenyl)-7-hydroxy-5-methyl-1,2,3,4,4a,5-hexahydrodipyrido[1,2-b:2′,1′-f][1,2,4]triazine-6,8-dione] | 3790 nM |  |
| CN1C(=O)c2c(OCc3ccccc3)c(=O)ccn2N2C(c3ccccc3)CCCCCC12 (stereo not drawn) [Compound 58A, 4-(benzyloxy)-6-methyl-12-phenyl-6,6a,7,8,9,10,11,12-octahydropyrido[1′,2′:1,6][1,2,4]triazino[2,3-a]azocine-3,5-dione] |  | > 8100 nM |
| CN1C(=O)c2c(O)c(=O)ccn2N2C(c3c(F)cccc3F)CCCC12 (single isomer, unassigned) [Compound 7A, 1-(2,6-difluorophenyl)-7-hydroxy-5-methyl-1,2,3,4,4a,5-hexahydrodipyrido[1,2-b:2′,1′-f][1,2,4]triazine-6,8-dione] | > 8100 nM |  |
| CN1C(=O)c2c(O)c(=O)ccn2N2C1CCC1(CCC(F)(F)C1)C2c1ccccc1 (single isomer, unassigned) [Compound 68A, 3,3-difluoro-7′-hydroxy-5′-methyl-1′-phenyl-3′,4′,4a′,5′-tetrahydro-1′H-spiro[cyclopentane-1,2′-dipyrido[1,2-b:2′,1′-f][1,2,4]triazine]-6′,8′-dione] |  | 349 nM |
| CN1C(=O)c2c(O)c(=O)ccn2N2C1CCC(O)C2(C)c1ccccc1 (stereo not drawn) [Compound 137C, 2,7-dihydroxy-1,5-dimethyl-1-phenyl-1,2,3,4,4a,5-hexahydrodipyrido[1,2-b:2′,1′-f][1,2,4]triazine-6,8-dione] | > 8100 nM |  |
| CCN1C(=O)c2c(O)c(=O)ccn2N2C(c3ccccc3)C(CC3(C(F)(F)F)CC3)CCC12 (single isomer, unassigned) [Compound 97B, 5-ethyl-7-hydroxy-1-phenyl-2-((1-(trifluoromethyl)cyclopropyl)methyl)-1,2,3,4,4a,5-hexahydrodipyrido[1,2-b:2′,1′-f][1,2,4]triazine-6,8-dione] | 24.2 nM |  |
| CCN1C(=O)c2c(O)c(=O)ccn2N2C(c3ccccc3F)C(CCC(F)F)CCC12 (single isomer, unassigned) [Compound 101B, 2-(3,3-difluoropropyl)-5-ethyl-1-(2-fluorophenyl)-7-hydroxy-1,2,3,4,4a,5-hexahydrodipyrido[1,2-b:2′,1′-f][1,2,4]triazine-6,8-dione] | 5.6 nM |  |
| CN1C(=O)c2c(O)c(=O)ccn2N2C(c3ccc(F)cc3)CCCC12 (single isomer, unassigned) [Compound 2B, 1-(4-fluorophenyl)-7-hydroxy-5-methyl-1,2,3,4,4a,5-hexahydrodipyrido[1,2-b:2′,1′-f][1,2,4]triazine-6,8-dione] | 5920 nM |  |
| CN1C(=O)c2c(O)c(=O)ccn2N2C(c3ccccc3)C(c3cc(F)c(F)cc3F)CCC12 (single isomer, unassigned) [Compound 86C, 7-hydroxy-5-methyl-1-phenyl-2-(2,4,5-trifluorophenyl)-1,2,3,4,4a,5-hexahydrodipyrido[1,2-b:2′,1′-f][1,2,4]triazine-6,8-dione] | 230 nM |  |
| CCC1(c2ccccc2)CCCC2N(C)C(=O)c3c(O)c(=O)ccn3N21 (single isomer, unassigned) [Compound 22C, 1-ethyl-7-hydroxy-5-methyl-1-phenyl-1,2,3,4,4a,5-hexahydrodipyrido[1,2-b:2′,1′-f][1,2,4]triazine-6,8-dione] | > 8100 nM |  |
| COCCC1CCC2N(C)C(=O)c3c(O)c(=O)ccn3N2C1c1ccccc1Cl (stereo not drawn) [Compound 67, 1-(2-chlorophenyl)-7-hydroxy-2-(2-methoxyethyl)-5-methyl-1,2,3,4,4a,5-hexahydrodipyrido[1,2-b:2′,1′-f][1,2,4]triazine-6,8-dione] |  | 16.4 nM |
| CN1C(=O)c2c(O)c(=O)ccn2N2C1CCCC2(C)c1c(F)cccc1F (single isomer, unassigned) [Compound 23A, 1-(2,6-difluorophenyl)-7-hydroxy-1,5-dimethyl-1,2,3,4,4a,5-hexahydrodipyrido[1,2-b:2′,1′-f][1,2,4]triazine-6,8-dione] | > 8100 nM |  |
| CN1C(=O)c2c(O)c(=O)ccn2N2C(c3ccccc3)C3CCC(C3)C12 (single isomer, unassigned) [Compound 9B, 4-hydroxy-6-methyl-11-phenyl-6a,7,8,9,10,11-hexahydro-3H-7,10-methanopyrido[1′,2′:1,6][1,2,4]triazino[2,3-a]azepine-3,5(6H)-dione] | 166 nM |  |
| CC1(c2ccccc2)CCCC2N(CCC(F)(F)F)C(=O)c3c(O)c(=O)ccn3N21 (single isomer, unassigned) [Compound 38B, 7-hydroxy-1-methyl-1-phenyl-5-(3,3,3-trifluoropropyl)-1,2,3,4,4a,5-hexahydrodipyrido[1,2-b:2′,1′-f][1,2,4]triazine-6,8-dione] | 5.8 nM |  |
| CN1C(=O)c2c(O)c(=O)ccn2N2C(c3ccccc3)C(c3cc(F)c(F)cc3F)CCC12 (single isomer, unassigned) [Compound 86D, 7-hydroxy-5-methyl-1-phenyl-2-(2,4,5-trifluorophenyl)-1,2,3,4,4a,5-hexahydrodipyrido[1,2-b:2′,1′-f][1,2,4]triazine-6,8-dione] | > 810 nM |  |
| CN1C(=O)c2c(O)c(=O)ccn2N2C(c3cccc(Br)c3)C(CC(F)(F)F)CCC12 (single isomer, unassigned) [Compound 83A, 1-(3-bromophenyl)-7-hydroxy-5-methyl-2-(2,2,2-trifluoroethyl)-1,2,3,4,4a,5-hexahydrodipyrido[1,2-b:2′,1′-f][1,2,4]triazine-6,8-dione] | 152 nM |  |
| CCN1C(=O)c2c(O)c(=O)ccn2N2C(c3ccccc3C)C(CCC(F)F)CCC12 (single isomer, unassigned) [Compound 102B, 2-(3,3-difluoropropyl)-5-ethyl-7-hydroxy-1-(o-tolyl)-1,2,3,4,4a,5-hexahydrodipyrido[1,2-b:2′,1′-f][1,2,4]triazine-6,8-dione] | 36.5 nM |  |
| Cc1ccccc1C1C(CC2CC2(F)F)CCC2N(C)C(=O)c3c(O)c(=O)ccn3N12 (single isomer, unassigned) [Compound 88A] | > 810 nM |  |
| CN1C(=O)c2c(O)c(=O)ccn2N2C(c3cccc4ccccc34)CCCC12 (single isomer, unassigned) [Compound 5B, 7-hydroxy-5-methyl-1-(naphthalen-1-yl)-1,2,3,4,4a,5-hexahydrodipyrido[1,2-b:2′,1′-f][1,2,4]triazine-6,8-dione] | 1700 nM |  |
| CN1C(=O)c2c(O)c(=O)ccn2N2C1CCCC21CCc2ccccc21 (single isomer, unassigned) [Compound 21D, 7-hydroxy-5-methyl-2′,3,3′,4,4a,5-hexahydro-2H-spiro[dipyrido[1,2-b:2′,1′-f][1,2,4]triazine-1,1′-indene]-6,8-dione] | 1550 nM |  |
| CN1C(=O)c2c(O)c(=O)ccn2N2C1CCCC2(C)c1ncccc1F (single isomer, unassigned) [Compound 27B, 1-(3-fluoropyridin-2-yl)-7-hydroxy-1,5-dimethyl-1,2,3,4,4a,5-hexahydrodipyrido[1,2-b:2′,1′-f][1,2,4]triazine-6,8-dione] | 17.1 nM |  |
| Cc1cccc(F)c1C1C(CC(F)(F)F)CCC2N(C)C(=O)c3c(O)c(=O)ccn3N12 (single isomer, unassigned) [Compound 77D, 1-(2-fluoro-6-methylphenyl)-7-hydroxy-5-methyl-2-(2,2,2-trifluoroethyl)-1,2,3,4,4a,5-hexahydrodipyrido[1,2-b:2′,1′-f][1,2,4]triazine-6,8-dione] | 1.9 nM |  |
| CN1C(=O)c2c(O)c(=O)ccn2N2C1CCC1(CC(F)(F)C1)C2c1ccccc1 (single isomer, unassigned) [Compound 74A, 3,3-difluoro-7′-hydroxy-5′-methyl-1′-phenyl-3′,4′,4a′,5′-tetrahydro-1′H-spiro[cyclobutane-1,2′-dipyrido[1,2-b:2′,1′-f][1,2,4]triazine]-6′,8′-dione] | > 810 nM |  |
| Cc1ccccc1C1N2C(CCC13CC1C(C3)C1(F)F)N(C)C(=O)c1c(O)c(=O)ccn12 (single isomer, unassigned) [Compound 69C, 6,6-difluoro-7′-hydroxy-5′-methyl-1′-(o-tolyl)-3′,4′,4a′,5′-tetrahydro-1′H-spiro[bicyclo[3.1.0]hexane-3,2′-dipyrido[1,2-b:2′,1′-f][1,2,4]triazine]-6′,8′-dione] | 88.4 nM |  |
| CN1C(=O)c2c(O)c(=O)ccn2N2C1CCC2(C)c1ccccc1Cl (single isomer, unassigned) [Compound 63A, 1-(2-chlorophenyl)-6-hydroxy-1,4-dimethyl-2,3,3a,4-tetrahydro-1H-pyrido[2,1-f]pyrrolo[1,2-b][1,2,4]triazine-5,7-dione] | > 8100 nM |  |
| CN1C(=O)c2c(O)c(=O)ccn2N2C1CCCC2(C)c1ncc(F)cc1F (single isomer, unassigned) [Compound 46A, 1-(3,5-difluoropyridin-2-yl)-7-hydroxy-1,5-dimethyl-1,2,3,4,4a,5-hexahydrodipyrido[1,2-b:2′,1′-f][1,2,4]triazine-6,8-dione] | 40.3 nM |  |
| CCN1C(=O)c2c(O)c(=O)ccn2N2C1CCC1(CCC(F)(F)CC1)C2c1ccccc1 (single isomer, unassigned) [Compound 76A] | > 810 nM |  |
| CN1C(=O)c2c(O)c(=O)ccn2C2C1CCCC2(O)c1ccccc1 (single isomer, unassigned) [Compound 165A, 1,7-dihydroxy-5-methyl-1-phenyl-1,3,4,4a,5,11a-hexahydro-2H-pyrido[1,2-a]quinoxaline-6,8-dione] |  | > 8100 nM |
| CN1C(=O)c2c(O)c(=O)ccn2N2C1CCCC2(C)c1ccccc1Cl (single isomer, unassigned) [Compound 20A, 1-(2-chlorophenyl)-7-hydroxy-1,5-dimethyl-1,2,3,4,4a,5-hexahydrodipyrido[1,2-b:2′,1′-f][1,2,4]triazine-6,8-dione] | 564 nM |  |
